Data taken from paper PMC8794255, “Small molecule inhibitor of Igf2bp1 represses Kras and a pro-oncogenic phenotype in cancer cells” (RNA Biology, 2021).

Key:
[1] = biological target: T1, G9a (Homo sapiens, UniProt Q96KQ7); assay: G9a FP assay (SAH-FITC probe); assay type: biochemical
T1 sequence (Q96KQ7 1-1210): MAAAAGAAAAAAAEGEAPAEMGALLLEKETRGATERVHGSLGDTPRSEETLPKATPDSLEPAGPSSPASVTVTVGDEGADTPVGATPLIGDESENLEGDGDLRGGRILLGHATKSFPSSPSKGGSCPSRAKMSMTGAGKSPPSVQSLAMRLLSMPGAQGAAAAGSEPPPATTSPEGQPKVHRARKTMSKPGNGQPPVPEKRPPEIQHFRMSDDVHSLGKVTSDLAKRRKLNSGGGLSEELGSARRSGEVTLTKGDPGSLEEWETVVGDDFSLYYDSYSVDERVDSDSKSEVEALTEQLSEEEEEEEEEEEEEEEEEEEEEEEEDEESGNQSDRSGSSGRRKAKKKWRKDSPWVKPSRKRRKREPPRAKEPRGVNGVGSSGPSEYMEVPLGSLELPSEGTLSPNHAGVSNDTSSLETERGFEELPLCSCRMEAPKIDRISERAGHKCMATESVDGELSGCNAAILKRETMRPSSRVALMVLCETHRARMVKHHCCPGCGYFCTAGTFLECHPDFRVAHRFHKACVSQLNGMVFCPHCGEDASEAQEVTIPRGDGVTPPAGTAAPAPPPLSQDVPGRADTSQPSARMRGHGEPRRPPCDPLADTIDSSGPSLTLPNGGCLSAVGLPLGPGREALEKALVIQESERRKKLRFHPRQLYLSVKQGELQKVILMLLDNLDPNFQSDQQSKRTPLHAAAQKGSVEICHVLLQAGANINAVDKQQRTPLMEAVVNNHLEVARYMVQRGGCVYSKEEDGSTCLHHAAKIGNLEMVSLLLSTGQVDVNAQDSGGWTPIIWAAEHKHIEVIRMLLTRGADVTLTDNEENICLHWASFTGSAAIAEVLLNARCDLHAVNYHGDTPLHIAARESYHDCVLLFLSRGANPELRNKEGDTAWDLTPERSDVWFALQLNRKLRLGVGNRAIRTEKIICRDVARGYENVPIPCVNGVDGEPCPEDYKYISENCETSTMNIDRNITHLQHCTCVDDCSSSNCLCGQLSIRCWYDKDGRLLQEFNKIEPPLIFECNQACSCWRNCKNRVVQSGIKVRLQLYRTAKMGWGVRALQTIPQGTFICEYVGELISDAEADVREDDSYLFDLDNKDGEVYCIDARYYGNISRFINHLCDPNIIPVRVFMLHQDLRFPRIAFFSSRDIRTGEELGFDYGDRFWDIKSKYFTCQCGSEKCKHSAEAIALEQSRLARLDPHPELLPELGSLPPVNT
Method: For the small-molecule screen, compounds were obtained from the collection maintained at the Grand Israel National Center for Personalized Medicine, consisting of molecules purchased from commercial vendors. Labelled RNA (10 nM) was incubated with recombinant Igf2bp1 protein (400 nM) in FAM-RNA buffer (10 mM Tris pH 8.0, 75 mM KCl, 0.5 mM EDTA, 1 mM DTT, 0.0188 U/μL RNAsin, 0.0005 μg/mL heparin, 0.0001 μg/μL tRNA, 0.01% Triton X-100, 3 mM MgCl2, 0.05% IGEPAL) at room temperature for 15 min. 7 μL of this reaction mix was aliquoted with GNF WDII (USA) into wells of 1536 well plates, with a final concentration of 20 μM compound or DMSO. The plates were spun down and read in a BMG Pherastar FS (Germany) plate reader, in FP mode with a 485/520/520 polarization filter, calibrated to 35 mP for free fluorescein with similar total intensity as experimental samples. […]

[2] = system: Igf2bp1-luciferase reporter fusions in RKO cells; assay: Split-luciferase assay (Igf2bp1 dimerization) in RKO cells; assay type: cell-based; details: 50 μM 7773
Method: Vectors expressing different fragments of split luciferase reporters with flexible linker were procured from Addgene (catalogue # 58786, 58787, 58788 and 58789). The vectors were digested with EcoRI and XhoI. EcoRI and XhoI restriction enzyme sites were added to 5′ and 3′ ends of the coding region of IGF2BP1, respectively, using PCR. We constructed four split luciferase reporter vectors by cloning IGF2BP1 in different orientations with the luciferase fragments . Primers used for the amplification of IGF2BP1 were: […]
The RKO cells were seeded in DMEM with 10% calf serum 24 hrs prior to the transfection. Transfection was done using Lipofectamine 2000 with reporter plasmids and Renilla-luciferase expressing vector (as internal control). After 24 hrs, cells were lysed using passive lysis buffer (Promega catalogue # E1941). The lysates were cleared by centrifugation and its 20 μL volume was mixed with 100 μL of luciferase substrate solution for luminescence recording which was followed by addition of 100 μL of Stop-glo solution (Promega catalogue # E1910) with an additional luminescence reading. Both readings were detected by using GloMax 20/20 Luminometer (Promega), and the final value for each sample was the ratio of their two respective readings. […]

[3] = system: wild-type luciferase in RKO cells; assay: Control (wild-type) luciferase in RKO cells; assay type: cell-based; details: 50 μM 7773
Method: The RKO cells were seeded in DMEM with 10% calf serum 24 hrs prior to the transfection. Transfection was done using Lipofectamine 2000 with reporter plasmids and Renilla-luciferase expressing vector (as internal control). After 24 hrs, cells were lysed using passive lysis buffer (Promega catalogue # E1941). The lysates were cleared by centrifugation and its 20 μL volume was mixed with 100 μL of luciferase substrate solution for luminescence recording which was followed by addition of 100 μL of Stop-glo solution (Promega catalogue # E1910) with an additional luminescence reading. Both readings were detected by using GloMax 20/20 Luminometer (Promega), and the final value for each sample was the ratio of their two respective readings. To test the effects of 7773, transfected cells with reporter plasmids were washed with PBS after 24 hrs of transfection and incubated with medium containing 7773.

[4] = system: HEK293 cells; assay: Wound healing (cell migration) assay, HEK293; assay type: cell-based, human
Method: Cells were seeded in 96 IncuCyte® ImageLock plates (20X10^3 cells per well) for 24 hours, to a near confluency of 95%, before the addition of increasing concentrations of compound. After a further 24 hours, wells were scratched using the IncuCyte® 96-well WoundMaker Tool, and the cells cultured for an additional 48 hours using the IncuCyte® S3 Live-Cell Analysis System (Essen BioScience). The plate was imaged at increments of 120 minutes for a period of 48 hours, and then analysed for relative wound healing.

[5] = system: H1299 cells; assay: Cell proliferation assay (Incucyte), H1299; assay type: cell-based, human
Method: (§1) ES2, H1299 and HEK293 cells were seeded in a 96 well plate (5X10^3 cells per well) for 24 hours before adding the compound at increasing concentrations. After an additional 24 hours, the plate was incubated in an IncuCyte® S3 Live-Cell Analysis System (Essen BioScience). The wells were filmed for 72 hours, and then analysed for proliferation rate Using IncuCyte® S3 Live-Cell Analysis System (Essen BioScience)

[6] = system: HEK293 cells; assay: Cell proliferation assay (Incucyte), HEK293; assay type: cell-based, human; details: HEK293, up to 20 μM
Method: as §1

With O=C(c1ccc(Cn2cnnn2)cc1)N1CCCC(Nc2ccc3c(c2)OCO3)C1 (centres unmarked) [compound 7773] the “Effect on G9a catalysing methylation of a peptide” value [1] was “almost no effect”, the “Effect on split-luciferase luminescence” value [2] was “significantly reduced luminescence” and the “Effect on activity of wild-type luciferase” value [3] was “did not affect”. The Wound healing ([4]; HEK293, 20 μM) was “strongly inhibited”, the Wound healing ([4]; HEK293, lowest concentration 5 μM) was “discernible inhibition” and the “Effect on cell proliferation or cytotoxicity” value ([5]; H1299, 20 μM 7773) was “virtually no effect”. The Cell proliferation ([5]; H1299, up to 20 μM) was “remarkably unaffected” and the Cell proliferation [6] was “remarkably unaffected”.
